The source of these data is publication PMC6766947, “Multi-Armed 1,2,3-Selenadiazole and 1,2,3-Thiadiazole Benzene Derivatives as Novel Glyoxalase-I Inhibitors” (Molecules, 2019).

In the test the target is T1, human recombinant Glo-I (rhGlo-I) (Homo sapiens, UniProt Q04760).
T1 construct: purchased R&D Systems
T1 sequence (Q04760 2-184 limits assumed): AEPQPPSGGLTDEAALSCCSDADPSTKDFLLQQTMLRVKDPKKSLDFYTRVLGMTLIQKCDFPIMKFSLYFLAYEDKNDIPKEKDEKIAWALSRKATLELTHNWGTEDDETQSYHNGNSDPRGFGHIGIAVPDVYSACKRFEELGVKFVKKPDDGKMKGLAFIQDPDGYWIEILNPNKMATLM
The experiment in a line: In vitro Glo-I enzyme inhibition assay (UV-Vis, 240 nm). To be noted: for IC50: rhGlo-I, triplicates, 240 nm, 200 s, 25 °C, pH 7.0–7.2. The format is biochemical. How it is done: A total of twelve synthesized multi-arm benzene derivatives of 1,2,3-selenadiazole and 1,2,3-thiadiazole by M. Al-Smadi et al. were selected for the present study. The in vitro inhibitory activity of the compounds against the human Glo-I enzyme was measured using double-beam UV-Vis spectrophotometer (Biotech Engineering Management Co. Ltd., UK).
The Glo-I inhibitory activity was determined as reported previously. Briefly, human recombinant Glo-I (rhGlo-I), provided by R&D Systems® Corporation, was reconstituted by dissolving 0.5 mg/mL of it in sterile, deionized water before storing at –70 °C. The tested compounds were dissolved in DMSO to 10 mM stock solution. The assay buffer was prepared by mixing 0.1 M sodium phosphate dibasic solution and 0.1 M sodium phosphate monobasic solution with a pH of 7.0–7.2. The substrate mixture was prepared by mixing a suitable volume of 0.1 M sodium phosphate assay buffer with 100 mM methylglyoxal solution and 100 mM reduced glutathione. Finally, the tested compounds were mixed with the assay buffer, substrate solution mixture, and the Glo-I enzyme in a cuvette at an appropriate tested concentration. Each compound was tested in triplicates at λmax = 240 nm for 200 s at 25 °C.

Structures are written as SMILES.

Take `c1cc(-c2csnn2)ccc1OCc1c(COc2ccc(-c3csnn3)cc2)c(COc2ccc(-c3csnn3)cc2)c(COc2ccc(-c3csnn3)cc2)c(COc2ccc(-c3csnn3)cc2)c1COc1ccc(-c2csnn2)cc1` [Compound 12]: the half-inhibitory concentration (IC50) (in general, the point on the concentration scale where inhibition reaches its midpoint) is 2670 ± 310 nM.

`c1cc(-c2c[se]nn2)ccc1OCc1c(COc2ccc(-c3c[se]nn3)cc2)c(COc2ccc(-c3c[se]nn3)cc2)c(COc2ccc(-c3c[se]nn3)cc2)c(COc2ccc(-c3c[se]nn3)cc2)c1COc1ccc(-c2c[se]nn2)cc1` [Compound 11]: the half-maximal inhibitory concentration (IC50) came out at 8300 ± 560 nM. Turning to `c1cc(-c2csnn2)ccc1OCc1cc(COc2ccc(-c3csnn3)cc2)c(COc2ccc(-c3csnn3)cc2)cc1COc1ccc(-c2csnn2)cc1` [Compound 10], the half-maximal inhibitory concentration (IC50) was found to be 2400 ± 130 nM. Also, the “activity relative to selenium containing counterpart” value (fold difference in Glo-I inhibitory activity, sulfur vs selenium analogue) is “eight times more active”. For `c1c(COc2ccc(-c3csnn3)cc2)cc(COc2ccc(-c3csnn3)cc2)cc1COc1ccc(-c2csnn2)cc1` [Compound 8], the half-inhibitory concentration (IC50) is 3000 ± 150 nM.
